Data on one compound can be found in patent US20200029558A1, “Biocidal Microcapsules for Biofouling Control” (Greenseal Research Ltd, priority 2016, published 2020).

Holding throughout (format): cell-based
Assay [1] concerns Staphylococcus aureus (ATCC25923). In words: Leaching tests on coated specimens (adapted OECD 313-2007), leaching waters assessed by bioassay. Particulars: after 30 days of exposure in artificial sea water, 120 rpm. The procedure:
(§1) Bioassays were performed to assess the antimicrobial activity against Staphylococcus aureus (ATCC 25923) by the Well diffusion method, at different mediums (artificial sea water (Sera marine salt), DMSO and MilliQ water). Initially, the microorganisms were cultured on Muller-Hinton agar for bacteria Staphylococcus aureus. Then, 100 μL of a standardized microorganism suspension, corresponding to 0.5 McFarland, was used to inoculate a Petri dish of solid Mueller-Hinton medium. These suspensions were spread over the medium surface using a sterile swab. Subsequently, agar wells were made of approximately 5.0 mm in diameter with a Pasteur pipette. Then, 50 μL of each sample, negative control (DMSO) and positive control (Econea) for Gram positive bacteria (Staphylococcus aureus), were added on each of the wells. Plates were incubated at 37° C. for 24 hours. After this period, the diameters of the inhibition zones were measured and the results were expressed in millimeters (mm). […]
Leaching of the biocide through the paint films of coated specimens containing the developed biocidal MCs was assessed by leaching tests, following an adapted procedure from the standard OECD 313-2007. […] Finally, the antimicrobial activity of the leaching waters was assessed by bioassays against microorganisms such as Staphylococcus aureus, following the same procedure as described in the previous examples.

The test system is the same in assay [2]. As to the kind of experiment: Antimicrobial activity of coating formulation films containing biocidal microcapsules. Here is the method: as §1, with “(mm). The assay was performed under aseptic conditions and in triplicate [M. Pereira, D. Matias, F. Pereira, C. P. Reis, M. F. Simões, P. Rijo, Antimicrobial screening of Plectranthus madagascariensis and P. neochilus extracts, Biomedical and Biopharmaceutical Research, Vol. 12 (2015) 127-138].” for “(mm).”

In assay [3] the test system is Staphylococcus aureus (ATCC 25923). In words: Well diffusion antimicrobial bioassay of microcapsules. Particulars: wells approx. 5.0 mm, 37° C. 24 hours. The procedure: Bioassays were performed to assess the antimicrobial activity against Staphylococcus aureus (ATCC 25923) by the Well diffusion method, at different mediums (artificial sea water (Sera marine salt), DMSO and MilliQ water). Initially, the microorganisms were cultured on Muller-Hinton agar for bacteria Staphylococcus aureus. Then, 100 μL of a standardized microorganism suspension, corresponding to 0.5 McFarland, was used to inoculate a Petri dish of solid Mueller-Hinton medium. These suspensions were spread over the medium surface using a sterile swab. Subsequently, agar wells were made of approximately 5.0 mm in diameter with a Pasteur pipette. Then, 50 μL of each sample, negative control (DMSO) and positive control (Econea) for Gram positive bacteria (Staphylococcus aureus), were added on each of the wells. Plates were incubated at 37° C. for 24 hours. After this period, the diameters of the inhibition zones were measured and the results were expressed in millimeters (mm). The assay was performed under aseptic conditions and in triplicate [M. Pereira, D. Matias, F. Pereira, C. P. Reis, M. F. Simões, P. Rijo, Antimicrobial screening of Plectranthus madagascariensis and P. neochilus extracts, Biomedical and Biopharmaceutical Research, Vol. 12 (2015) 127-138]. Following the above described procedure, different mediums were used to assess the bioactivity of microcapsules, such as artificial sea water, MilliQ water and dimethyl sulfoxide (DMSO) (Table 1).
Following similar bioassays procedures as example 1, different mediums were used to assess the bioactivity of microcapsules, such as artificial sea water, MilliQ water and dimethyl sulfoxide (DMSO) (Table 3).
On the technique in general: Agar diffusion results depend on both activity and mobility in agar.

Take `N#Cc1c(-c2ccc(Cl)cc2)[nH]c(C(F)(F)F)c1Br` [Econea biocide, 2-(p-chlorophenyl)-3-cyano-4-bromo-5-trifluoromethyl pyrrole]: the “Inhibition zones of leaching waters of immersed coated specimens” value in assay [1] was found to be 20 mm. The “Inhibition zones of polyurethane based coating formulations” value in assay [2] (medium DMSO) was determined as 20 mm; in assay [2] (medium artificial sea water), 18 mm. Moreover, the Inhibition zones in assay [3] (medium DMSO) stood at 19 mm; in assay [3] (medium MilliQ water), 23 mm; in assay [3] (medium artificial sea water), 20 mm.
